The subject of data set [1] is AML cells. As to the kind of experiment: Apoptosis assay (Annexin V/DAPI), AML cells. It counts as cell-based. The note with it: 24 hours of incubation, FIG. 6. How it is done: FIG. 6. […] 24 hours of incubation with Compound 1 (assay by Annexin V/DAPI), Black—Percentage of live cells; Grey—Percentage of apoptotic cells.
(§1) Cell proliferation, cell cycle, and apoptosis assays. For cell proliferation assays, manual cell counts were performed by culturing cells in 24- or 48-well plates. Viable cells were counted using trypan blue exclusion and cell density was re-adjusted in each well every 3-5 days. For cell cycle assays, the Click-iT™ EdU Flow Cytometry Assay system (Invitrogen) was used following the manufacturer's instructions. For apoptosis assays, apoptotic and necrotic cells were analyzed by use of Annexin V/DAPI staining.

In the next data set the test system is HL60 AML cells. As to the kind of experiment: Cell proliferation assay, HL60 AML cells. It counts as cell-based, human. The note with it: FIG. 2, FIG. 3. How it is done: as §1
For data set [2], the system named is cells from a patient with myelodysplastic syndrome (MDS). As to the kind of experiment: Colony formation of cells from a patient with myelodysplastic syndrome. It counts as cell-based, human. The note with it: FIG. 8. As to the method: FIG. 8. Compound 1-mediated inhibition of PAK1: effects on colony formation of cells from a patient with myelodysplastic syndrome (MDS). Inhibition of PAKI is effective in both myelodysplastic syndrome (MDS) and acute myeloid leukemia (AML).
(§2) Colony, formation assays and serial replating assays. Assays were performed in MethoCult M3434 (Stern Cell Technologies, Vancouver, BC) containing IL-3, IL-6, SCF, and EPO or in MethoCult M3234 supplemented with M-CSF or GM-CSF as previously described (Higuchi et al, 2002; Huntly et al, 2004;Will et al, 2009). GFP+ colonies were scored 8-10 days after plating using an AXIOVERT 200M microscope (Zeiss, Maple Grove, Minn.). After scoring, GFP+ cells were re-sorted after each round and then serial replating assays were carried out. Cells were replated and colonies were again scored after 10-14 days.
FIG. 8 illustrates Compound 1-mediated inhibition of PAK1 effects on colony formation of cells from a patient with myelodysplastic syndrome (MDS) Inhibition of PAK1 is effective in both myelodysplastic syndrome (MDS) and acute myeloid leukemia (AML). See also FIG. 5.

The subject of another data set is KG1a AML cells. As to the kind of experiment: Cell proliferation assay, KG1a AML cells. It counts as cell-based, human. The note with it: FIG. 2. As to the method:
as §1

Data set [3] deals with AML and MDS cells isolated from the bone marrow of AML and MDS patients. As to the kind of experiment: Growth of primary patient AML/MDS cells versus healthy donor hematopoietic cells. The note with it: primary bone marrow and peripheral blood samples; *p<0.05, **p<0.01; FIG. 5. It counts as cell-based, human. How it is done:
The experiments illustrated in FIG. 5 were performed using primary bone marrow and peripheral blood samples given by healthy donors and by patients with acute myeloid leukemia.

Another data set has as its system MOLM13. As to the kind of experiment: Cell proliferation assay, MOLM13 AML cells. Format: cell-based, human. The note with it: FIG. 2. As to the method:
as §1

The test system of another data set is STAT4. Briefly: STAT4 expression in THP1 cells (Western Blot, qRT-PCR). It counts as cell-based, human. The note with it: FIG. 10. As to the method:
FIG. 10A-10B. STAT4 expression is increased upon treatment with Compound 1 (IPA-3) or PAKI shRNA knockdown in THP1 cells. A) Western Blot; B) qRT-PCR.
Quantitative real-time PCR. Total RNA was extracted from FACS-sorted cells or cultured cells using RNeasy Micro kit (Qiagen, Valencia, Calif.). cDNA was synthesized by Superscript II reverse transcriptase (Invitrogen, Carlsbad, Calif.). Real-time PCR was performed using an iQ5 real-time PCR detection system (BIO-RAD, Hercules, Calif.) with 1 cycle of 50° C. (2 min) and 95° C. (10 min) followed by 40 cycles of 95° C. (15 sec) and 60° C. (1 min) using Power SYBR Green PCR master mix (AB, Carlsbad, Calif.).
Western blotting. Total cell lysates were extracted in lysis buffer (50 mM Tris-Cl (pH 7.5), 1 mM EDTA, 150 mM NaCl, 1%NP-40, 1% sodium deoxycholate, 1 mM PMSF, and protease inhibitor (Roche)). Anti-Hlx polyclonal rabbit antibody (SantaCruz, clone H-130, sc-135014) and anti-actin polyclonal goat antibody (Santa Cruz, clone C-11, sc1615) were used as primary antibodies, […] anti-rabbit or anti-goat antibody (Santa Cruz) were used as secondary antibodies. ECL solution (Pierce) was used for detection.
(§3) In contrast, STAT4 expression is increased upon treatment with Compound 1 or PAK1 shRNA knockdown in THP1 cells (FIG. 10).

Data set [4] deals with downstream signaling pathways of PAK1. As to the kind of experiment: Phosphorylation status of kinases in THP1 leukemia cells. The note with it: 4 hours, 6 μg/ml IPA-3 vs DMSO, FIG. 9. It counts as cell-based, human.
Description: FIG. 9. Effect of Compound 1 (IPA-3) on downstream signaling pathways of PAKI.
as §3

Data set [5] relates to THP1 AML cells. Briefly: Cell proliferation assay, THP1 AML cells. The note with it: FIG. 2, FIG. 7. Format: cell-based, human. How it is done:
as §1

In data set [6] the test system is AML cells. As to the kind of experiment: Colony formation assay, AML cells. It counts as cell-based. The note with it: FIG. 4. How it is done:
as §2

The test system of data set [7] is THP1 AML cells. Briefly: Survival of mice injected with THP1 cells expressing PAK1 shRNA. Format: in vivo. The note with it: for liver infiltration of leukemia cells: animals receiving THP1 with shRNA vs control cells, not illustrated; for survival of mice: mice injected with 300,000 THP1 cells expressing shRNA, vs non-silencing control shRNA, FIG. 12B. How it is done:
FIG. 12A-12B, Evaluation of PAK1 expression reduction in THP1 AML cells by shRNAs, A) Evaluated mRNA levels by RT-gPCR.
The effects on survival of reduced PAK1 expression in THP1 AML cells when expression was reduced by shRNAs was evaluated in mice.

We go through four compounds from patent publication US20150359815A1, “PAK1 INHIBITION FOR TREATMENT OF ACUTE MYELOID LEUKEMIA AND MYELODYSPLASTIC SYNDROMES” (ALBERT EINSTEIN COLLEGE OF MEDICINE OF YESHIVA UNIVERSITY, priority 2013, published 2015).

Consider `Oc1ccc2ccccc2c1SSc1c(O)ccc2ccccc12` [Compound 1, 1,1′-Disulfanediyldinaphthalen-2-ol], for which the “apoptosis in AML cells” value in the data set with AML cells [1] is “induces apoptosis”. In addition, in the data set with HL60 AML cells, the “proliferation of HL60 AML cells” value is “reduces proliferation”. The “colony formation of cells from a patient with MDS” value in data set [2] is “effective”. The “proliferation of KG1a AML cells” value in the data set on KG1a AML cells was “reduces proliferation”. The “effect on growth of AML and MDS patient cells compared with healthy hematopoietic cells” value in [3] was “greater effect”. Besides, the “proliferation of MOLM13 AML cells” value with MOLM13 is reported as “reduces proliferation”. In the data set with STAT4, the STAT4 expression entry is listed as “increased”. Also, in data set [4], the “several additional oncogenic signaling pathways (kinase phosphorylation status)” value was “significantly inhibited”. Besides, in the data set with THP1 AML cells [5], the “proliferation of THP1 AML cells” value is “reduces proliferation”. The “colony formation ability of AML cells” value with AML cells [6] is “reduces colony formation ability”.
Consider `Cc1nc(Nc2n[nH]c3c2CN(C(=O)N[C@H](CN(C)C)c2ccccc2)C3(C)C)c2sccc2n1` [Compound 2, (S)-N-(2-(dimethylamino)-1-phenylethyl)-6,6-dimethyl-3-((2-methylthieno[3,2-d]pyrimidin-4-yl)amino)-4,6-dihydropyrrolo[3,4-c]pyrazole-5(1H)-carboxamide], for which the “proliferation of THP1 AML cells” value with THP1 AML cells [5] was “reduces proliferation”.
For “shRNA #1: short hairpin sequence for human PAK1, CGATGAGAAATACCAGCACTA, expressed by lentivirus (the letters are possibly those of the target site)”, in the data set with THP1 AML cells [7], the “liver infiltration of leukemia cells” value is on record as “Significantly less liver infiltration of leukemia cells” and the survival of mice entry is listed as “Significant prolongation of survival”.
Consider “shRNA #2: short hairpin sequence for human PAK1, GCGATCCTAAGAAGAAATATA, expressed by lentivirus (the letters are possibly those of the target site)”, for which, in the data set on THP1 AML cells [7], the “liver infiltration of leukemia cells” value is recorded as “Significantly less liver infiltration of leukemia cells” and the survival of mice entry is “Significant prolongation of survival”. For the same compound, the “long-term survival of some mice” value with THP1 AML cells [7] (entire duration of the assay (90 days)) was “long-term survival”.
